Test results as given in patent US12590070B2, “Adamantane derivatives as inhibitors of focal adhesion kinase” (SAMJIN PHARMACEUTICAL CO., LTD., priority 2019, dated 2026).

Assays:
Type in all cases: biochemical
Settings in all cases: ADP-Glo Kinase Assay Kit
[1] = target: FAK (Homo sapiens, UniProt Q05397); experiment: ADP-Glo Kinase Assay, FAK; parameters: purchased Promega V1971
Description: (§1) Briefly, a kinase test was performed and quantified according to the manufacturer's instructions after treating the adamantane derivative compound of the present invention by using the ADP-Glo™ Kinase Assay Kit (FAK, Promega, V1971; Pyk2, Promega, V4083; InsR, Promega, V9401) containing each kinase of Promega.

[2] = target: T1, Pyk2 (Homo sapiens, UniProt Q14289); experiment: ADP-Glo Kinase Assay, Pyk2
T1 construct: purchased Promega V4083
T1 sequence (Q14289 whole entry): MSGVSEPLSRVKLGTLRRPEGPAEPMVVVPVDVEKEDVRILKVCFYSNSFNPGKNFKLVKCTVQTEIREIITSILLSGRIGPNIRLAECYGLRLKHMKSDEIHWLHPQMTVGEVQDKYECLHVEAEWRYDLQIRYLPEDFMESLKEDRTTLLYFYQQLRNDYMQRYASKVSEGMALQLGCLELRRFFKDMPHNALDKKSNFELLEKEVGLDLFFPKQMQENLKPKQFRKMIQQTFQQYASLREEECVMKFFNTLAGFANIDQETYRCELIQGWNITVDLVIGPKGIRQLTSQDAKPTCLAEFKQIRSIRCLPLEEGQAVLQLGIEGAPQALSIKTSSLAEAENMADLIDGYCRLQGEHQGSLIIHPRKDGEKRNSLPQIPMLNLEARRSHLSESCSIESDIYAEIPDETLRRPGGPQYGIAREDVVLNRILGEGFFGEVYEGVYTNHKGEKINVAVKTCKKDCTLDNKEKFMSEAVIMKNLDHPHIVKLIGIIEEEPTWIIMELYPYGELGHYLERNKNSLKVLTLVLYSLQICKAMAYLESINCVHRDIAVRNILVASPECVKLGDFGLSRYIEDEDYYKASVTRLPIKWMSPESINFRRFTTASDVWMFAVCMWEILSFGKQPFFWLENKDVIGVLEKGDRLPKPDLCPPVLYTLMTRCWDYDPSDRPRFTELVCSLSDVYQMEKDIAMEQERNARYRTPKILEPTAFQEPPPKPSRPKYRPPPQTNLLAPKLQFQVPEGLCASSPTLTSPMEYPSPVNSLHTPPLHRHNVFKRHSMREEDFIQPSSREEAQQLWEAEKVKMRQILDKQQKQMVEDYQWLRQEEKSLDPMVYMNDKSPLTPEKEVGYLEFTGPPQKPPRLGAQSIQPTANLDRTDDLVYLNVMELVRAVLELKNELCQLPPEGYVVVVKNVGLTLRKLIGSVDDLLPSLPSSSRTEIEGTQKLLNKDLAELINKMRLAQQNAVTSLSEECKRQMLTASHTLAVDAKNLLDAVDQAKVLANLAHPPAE
Description: as §1

[3] = target: T2, InsR (Homo sapiens, UniProt P06213); experiment: ADP-Glo Kinase Assay, InsR
T2 construct: purchased Promega V9401
T2 sequence (P06213 28-1382): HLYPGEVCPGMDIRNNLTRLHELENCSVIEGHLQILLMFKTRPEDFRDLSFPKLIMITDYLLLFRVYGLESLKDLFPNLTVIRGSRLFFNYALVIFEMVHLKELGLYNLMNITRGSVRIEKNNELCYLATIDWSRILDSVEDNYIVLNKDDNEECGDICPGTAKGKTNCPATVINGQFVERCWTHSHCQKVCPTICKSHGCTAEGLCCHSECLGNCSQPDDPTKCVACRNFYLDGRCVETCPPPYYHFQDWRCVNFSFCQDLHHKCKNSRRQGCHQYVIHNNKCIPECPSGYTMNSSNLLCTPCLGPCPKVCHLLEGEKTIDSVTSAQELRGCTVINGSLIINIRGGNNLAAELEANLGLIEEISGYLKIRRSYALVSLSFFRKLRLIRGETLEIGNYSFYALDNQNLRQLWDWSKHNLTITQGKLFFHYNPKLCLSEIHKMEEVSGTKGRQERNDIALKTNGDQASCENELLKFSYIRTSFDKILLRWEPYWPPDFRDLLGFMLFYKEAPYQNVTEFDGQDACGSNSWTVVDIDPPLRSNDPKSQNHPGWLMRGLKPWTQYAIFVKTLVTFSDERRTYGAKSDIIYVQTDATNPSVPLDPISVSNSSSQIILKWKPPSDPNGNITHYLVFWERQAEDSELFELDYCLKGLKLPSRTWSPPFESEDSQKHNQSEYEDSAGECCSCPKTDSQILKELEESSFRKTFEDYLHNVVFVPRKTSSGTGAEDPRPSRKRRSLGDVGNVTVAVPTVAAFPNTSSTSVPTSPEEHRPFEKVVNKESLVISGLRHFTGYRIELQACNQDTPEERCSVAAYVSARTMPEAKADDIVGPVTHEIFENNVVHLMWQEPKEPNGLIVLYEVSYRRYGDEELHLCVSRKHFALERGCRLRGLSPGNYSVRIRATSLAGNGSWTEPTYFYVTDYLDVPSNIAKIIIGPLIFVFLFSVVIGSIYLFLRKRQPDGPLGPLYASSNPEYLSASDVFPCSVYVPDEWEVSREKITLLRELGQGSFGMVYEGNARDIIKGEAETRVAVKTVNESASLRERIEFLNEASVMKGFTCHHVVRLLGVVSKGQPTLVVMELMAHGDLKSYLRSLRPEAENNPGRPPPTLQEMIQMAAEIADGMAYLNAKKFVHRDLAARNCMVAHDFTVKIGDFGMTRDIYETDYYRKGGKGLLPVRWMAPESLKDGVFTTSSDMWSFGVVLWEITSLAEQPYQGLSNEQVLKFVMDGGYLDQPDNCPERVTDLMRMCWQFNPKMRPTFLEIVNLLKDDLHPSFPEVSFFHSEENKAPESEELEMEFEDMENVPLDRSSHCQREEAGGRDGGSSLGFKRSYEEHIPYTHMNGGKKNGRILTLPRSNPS
Description: as §1

FAK, sequence (Q05397 whole entry): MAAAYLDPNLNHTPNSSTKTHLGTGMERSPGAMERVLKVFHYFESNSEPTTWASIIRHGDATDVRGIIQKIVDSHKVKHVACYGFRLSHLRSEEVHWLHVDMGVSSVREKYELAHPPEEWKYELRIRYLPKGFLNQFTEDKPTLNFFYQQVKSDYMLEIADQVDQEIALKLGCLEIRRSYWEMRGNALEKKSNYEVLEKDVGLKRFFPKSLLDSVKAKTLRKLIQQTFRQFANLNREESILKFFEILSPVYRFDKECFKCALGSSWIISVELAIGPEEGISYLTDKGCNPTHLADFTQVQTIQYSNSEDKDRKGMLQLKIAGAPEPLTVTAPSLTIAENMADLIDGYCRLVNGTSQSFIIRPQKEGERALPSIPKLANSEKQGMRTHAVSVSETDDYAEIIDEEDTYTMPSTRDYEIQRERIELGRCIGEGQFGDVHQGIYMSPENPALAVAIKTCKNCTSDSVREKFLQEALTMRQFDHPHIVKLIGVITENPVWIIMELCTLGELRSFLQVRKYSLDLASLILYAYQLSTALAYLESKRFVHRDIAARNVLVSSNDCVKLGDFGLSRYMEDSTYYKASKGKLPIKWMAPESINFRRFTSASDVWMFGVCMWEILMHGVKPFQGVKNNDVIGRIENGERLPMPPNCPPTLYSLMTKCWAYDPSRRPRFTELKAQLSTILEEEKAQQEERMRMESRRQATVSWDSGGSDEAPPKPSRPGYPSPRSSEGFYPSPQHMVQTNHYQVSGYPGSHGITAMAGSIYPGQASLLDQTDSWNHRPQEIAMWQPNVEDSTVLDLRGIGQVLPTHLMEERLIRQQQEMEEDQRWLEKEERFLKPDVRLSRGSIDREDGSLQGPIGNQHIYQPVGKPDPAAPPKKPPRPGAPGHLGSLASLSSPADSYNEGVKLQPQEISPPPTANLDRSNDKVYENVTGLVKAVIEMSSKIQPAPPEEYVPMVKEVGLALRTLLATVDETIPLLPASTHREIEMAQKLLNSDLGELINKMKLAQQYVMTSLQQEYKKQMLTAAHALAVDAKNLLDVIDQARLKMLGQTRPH

Structure (SMILES) | IC50 [1] [nM] | IC50 [2] [nM] | IC50 [3] [nM]
CNC(=O)c1cccc(C)c1Nc1nc(Nc2ccc(NC(=O)[C@]34CC5CC(C3)[C@@H](N3CC[C@H](N)C3)C(C5)C4)cc2OC)ncc1C(F)(F)F [Compound 30, (trans)-4-((S)-3-aminopyrrolidin-1-yl)-N-(3-methoxy-4-((4-((2-methyl-6-(methylcarbamoyl)phenyl)amino)-5-(trifluoromethyl)pyrimidin-2-yl)amino)phenyl) adamantan-1-carboxamide] | – | 18.2 | 3800
CNC(=O)c1cccc(C)c1Nc1nc(Nc2ccc(N3CCN([C@H]4C5CC6CC4C[C@](C(=O)O)(C6)C5)CC3)cc2OC)ncc1C(F)(F)F [Compound 39, (trans)-4-(4-(3-methoxy-4-((4-((2-methyl-6-(methylcarbamoyl)phenyl)amino)-5-(trifluoromethyl)pyrimidin-2-yl)amino)phenyl)piperazin-1-yl) adamantan-1-carboxylic acid] | 58 | – | –
CNC(=O)c1cccc(C)c1Nc1nc(Nc2ccc(N3CCN([C@H]4C5CC6CC4C[C@@](C(=O)OC)(C6)C5)CC3)cc2OC)ncc1C(F)(F)F [Compound 38, methyl (cis)-4-(4-(3-methoxy-4-((4-((2-methyl-6-(methylcarbamoyl)phenyl)amino)-5-(trifluoromethyl)pyrimidin-2-yl)amino)phenyl)piperazin-1-yl) adamantan-1-carboxylate] | 70 | – | –
CNC(=O)c1cccc(C)c1Nc1nc(Nc2ccc(NC(=O)[C@]34CC5CC(C3)[C@H](N3CC[C@H](NC(C)=O)C3)C(C5)C4)cc2OC)ncc1C(F)(F)F [Compound 28, (cis)-4-((S)-3-acetamidopyrrolidin-1-yl)-N-(3-methoxy-4-((4-((2-methyl-6-(methylcarbamoyl)phenyl)amino)-5-(trifluoromethyl)pyrimidin-2-yl)amino)phenyl) adamantan-1-carboxamide] | 29 | 64.5 | > 10000
COc1cc(C2CCN([C@H]3C4CC5CC3C[C@](O)(C5)C4)CC2)ccc1Nc1ncc(C(F)(F)F)c(Nc2c(C)cccc2C(N)=O)n1 [Compound 34, 2-((2-((4-(1-((trans)-5-hydroxyadamantan-2-yl)piperidin-4-yl)-2-methoxyphenyl)amino)-5-(trifluoromethyl)pyrimidin-4-yl)amino)-3-methylbenzamide] | – | 427 | 1640
CNC(=O)c1cccc(C)c1Nc1nc(Nc2ccc(NC3C4CC5CC3CC(C(=O)N3CCOCC3)(C5)C4)cc2OC)ncc1C(F)(F)F (stereo not drawn) [Compound 22, 2-((2-((2-methoxy-4-((5-(morpholin-4-carbonyl)adamantan-2-yl)amino)phenyl)amino)-5-(trifluoromethyl)pyrimidin-4-yl)amino)-N,3-dimethylbenzamide] | 57 | – | –
CNC(=O)c1cccc(C)c1Nc1nc(Nc2ccc(O[C@]34CC5CC(C3)[C@@H](N3CC[C@H](NC(C)=O)C3)C(C5)C4)cc2OC)ncc1C(F)(F)F [Compound 14, 2-((2-((4-(((trans)-4-((S)-3-acetamidopyrrolidin-1-yl)adamantan-1-yl)oxy)-2-methoxyphenyl)amino)-5-(trifluoromethyl)pyrimidin-4-yl)amino)-N,3-dimethylbenzamide] | 57 | – | –
CNC(=O)c1cccc(C)c1Nc1nc(Nc2ccc(OC3C4CC5CC3CC(C(=O)N3CCOCC3)(C5)C4)cc2OC)ncc1C(F)(F)F (stereo not drawn) [Compound 19, 2-((2-((2-methoxy-4-((5-(morpholin-4-carbonyl)adamantan-2-yl)oxy)phenyl)amino)-5-(trifluoromethyl)pyrimidin-4-yl)amino)-N,3-dimethylbenzamide] | 127 | – | –

The remaining lines, values ahead:

IC50 [1] [nM] | IC50 [2] [nM] | IC50 [3] [nM] | Structure (SMILES)
43.6 | – | – | CNC(=O)c1cccc(C)c1Nc1nc(Nc2ccc(N3CCN([C@H]4C5CC6CC4C[C@](C(=O)OC)(C6)C5)CC3)cc2OC)ncc1C(F)(F)F [Compound 37, methyl (trans)-4-(4-(3-methoxy-4-((4-((2-methyl-6-(methylcarbamoyl)phenyl)amino)-5-(trifluoromethyl)pyrimidin-2-yl)amino)phenyl)piperazin-1-yl) adamantan-1-carboxylate]
– | 154 | 2150 | CNC(=O)c1cccc(C)c1Nc1nc(Nc2ccc(C3CCN([C@H]4C5CC6CC4C[C@](O)(C6)C5)CC3)cc2OC)ncc1C(F)(F)F [Compound 32, 2-((2-((4-(1-((trans)-5-hydroxyadamantan-2-yl)piperidin-4-yl)-2-methoxyphenyl)amino)-5-(trifluoromethyl)pyrimidin-4-yl)amino)-N,3-dimethylbenzamide]
92.9 | – | – | CNC(=O)c1cccc(C)c1Nc1nc(Nc2ccc(OC3C4CC5CC3CC(C(=O)NC)(C5)C4)cc2OC)ncc1C(F)(F)F (stereo not drawn) [Compound 18, 4-(3-methoxy-4-((4-((2-methyl-6-(methylcarbamoyl)phenyl)amino)-5-(trifluoromethyl)pyrimidin-2-yl)amino)phenoxy)-N-methyladamantan-1-carboxamide]
61.4 | – | – | CNC(=O)c1cccc(C)c1Nc1nc(Nc2ccc(N3CCN([C@H]4C5CC6CC4C[C@@](O)(C6)C5)CC3)cc2OC)ncc1Cl [Compound 36, 2-((5-chloro-2-((4-(4-((trans)-5-hydroxyadamantan-2-yl)piperazin-1-yl)-2-methoxyphenyl)amino)-pyrimidin-4-yl)amino)-N,3-dimethylbenzamide]
– | 101 | 2050 | CNC(=O)c1cccc(C)c1Nc1nc(Nc2ccc(C3CCN([C@H]4C5CC6CC4C[C@@](O)(C6)C5)CC3)cc2OC)ncc1C(F)(F)F [Compound 33, 2-((2-((4-(1-((cis)-5-hydroxyadamantan-2-yl)piperidin-4-yl)-2-methoxyphenyl)amino)-5-(trifluoromethyl)pyrimidin-4-yl)amino)-N,3-dimethylbenzamide]
58.3 | – | – | CNC(=O)c1cccc(C)c1Nc1nc(Nc2ccc(N3CCN([C@H]4C5CC6CC4C[C@](C(=O)O)(C6)C5)CC3)cc2OC)ncc1C(F)(F)F [Compound 40, (cis)-4-(4-(3-methoxy-4-((4-((2-methyl-6-(methylcarbamoyl)phenyl)amino)-5-(trifluoromethyl)pyrimidin-2-yl)amino)phenyl)piperazin-1-yl) adamantan-1-carboxylic acid]
98.1 | – | > 10000 | CNC(=O)c1cccc(C)c1Nc1nc(Nc2ccc(OC3CCN(C4C5CC6CC(C5)CC4C6)CC3)cc2OC)ncc1C(F)(F)F (stereo not drawn) [Compound 9, 2-((2-((4-((1-(adamantan-2-yl)piperidin-4-yl)oxy)-2-methoxyphenyl)amino)-5-(trifluoromethyl)pyrimidin-4-yl)amino)-N,3-dimethylbenzamide]
– | 418 | 1440 | COc1cc(C2CCN([C@H]3C4CC5CC3C[C@](O)(C5)C4)CC2)ccc1Nc1ncc(C(F)(F)F)c(Nc2c(C)cccc2C(N)=O)n1 [Compound 35, 2-((2-((4-(1-((cis)-5-hydroxyadamantan-2-yl)piperidin-4-yl)-2-methoxyphenyl)amino)-5-(trifluoromethyl)pyrimidin-4-yl)amino)-3-methylbenzamide]
